# Test results taken from US20150089682A1, “ALS Inhibitor Herbicide Tolerant B. Napus Mutants” (priority 2012, published 2015).
# Legend:
# [1] = test system: spring oilseed rape homozygous for HETO108 and HETO121; experiment: Herbicide tolerance in the field, visible phytotoxicity; assay type: in vivo, Brassica napus; settings: for pest or weed control at 30 g/ha: AI dose rate 30 gai/ha; for pest or weed control at 50 g/ha: AI dose rate 50 gai/ha
# From the text: (§1) Seeds of spring oilseed rape homozygous for HETO108 and HETO121 were sown in a field according to typical practical agricultural methods. The registered spring oilseed rape variety ABILITY served as a comparison. All plants were cultivated up to BBCH stage 14 (four true leaves of the oilseed rape plants). Afterwards, the herbicides mentioned in table 2 have been applied to the oilseed rape plants by using specific spray equipment for small plot applications. The water amount used was 200 L/ha.
# [2] = test system: spring oilseed rape variety ABILITY; experiment: as above; assay type: in vivo, Brassica napus; settings: for pest or weed control at 30 g/ha: AI dose rate 30 gai/ha; for pest or weed control at 50 g/ha: AI dose rate 50 gai/ha
# From the text: as §1
# [3] = target: T1, Arabidopsis thaliana P197S-mutant ALS (Arabidopsis thaliana, UniProt P17597, E575Q/P197S); experiment: biochemical; settings: for IC50: read-out: pI50 P197S (converted); for Resistance Factor P197S: relative to WT, from measured pI50
# T1 construct: vector-encoded N-terminal fusion of pET-32a(+) (Trx/His/S tag by own knowledge); made in house; host or cells: Escherichia coli AD494
# Experimental: (§2) Bacteria were grown at 37° C. in LB-medium containing 100 mg/1 carbenicillin and 25 mg/1 canamycin, induced with 1 mM isopropyl-β-D-thiogalactopyranoside at an OD600 of 0.6, cultivated for 16 hours at 18° C. and harvested by centrifugation. Bacterial pellets were resusupended in 100 mM sodium phosphate buffer pH 7.0 containing 0.1 mM thiamine-pyrophosphate, 1 mM MgCl2, and 1 μM FAD at a concentration of 1 gram wet weight per 25 ml of buffer and disrupted by sonification. The crude protein extract obtained after centrifugation was used for ALS activity measurements.
# (§3) Assays were initiated by adding enzyme and terminated after 75 min incubation at 30° C. by the addition to 40 μl 0.5 M H2SO4. […] Reaction velocities were tiffed to the Michalis-Menten equation with the XLFit curve fitting program.
# [4] = target: T2, Arabidopsis thaliana S653N-mutant ALS (Arabidopsis thaliana, UniProt P17597, E575Q/S653N); experiment: biochemical; settings: for IC50: read-out: pI50 S653N (converted); for Resistance Factor S653N: relative to WT, from measured pI50
# T2 construct: vector-encoded N-terminal fusion of pET-32a(+) (Trx/His/S tag by own knowledge); made in house; host or cells: Escherichia coli AD494
# Experimental: as §2, §3
# [5] = target: T3, Arabidopsis thaliana W574L-mutant ALS (Arabidopsis thaliana, UniProt P17597, E575Q/W574L); experiment: biochemical; settings: for IC50: read-out: pI50 W574L (converted); for Resistance Factor W574L: relative to WT, from measured pI50
# T3 construct: vector-encoded N-terminal fusion of pET-32a(+) (Trx/His/S tag by own knowledge); made in house; host or cells: Escherichia coli AD494
# Experimental: as §2, §3
# [6] = target: T4, Arabidopsis thaliana wild-type ALS (Arabidopsis thaliana, UniProt P17597, E575Q); experiment: biochemical; settings: measured, crude extract of E. coli expressed enzyme; for IC50: read-out: pI50 WT (converted)
# T4 construct: vector-encoded N-terminal fusion of pET-32a(+) (Trx/His/S tag by own knowledge); made in house; host or cells: Escherichia coli AD494
# Experimental: as §2, §3
# [7] = target: T5, mixture of P197S and W574L ALS enzymes (Arabidopsis thaliana, UniProt P17597); assay type: biochemical; settings: for pI50 P197S & W574L: calculated for a mixture of equal activities of the two enzymes, pI50=3.0 used where measured <4; for Resistance Factor P197S & W574L: relative to WT, calculated
# T5 construct: crude E. coli extract was used
# Experimental: as §3
# (§4) To characterize the response of a mixture of two different ALS enzymes to a given ALS inhibitor the following assumptions were made: • a inhibition is competitive and reversible • b. in the absence of inhibitor, equal activities of the ALS (mutant) enzymes 1 and 2 are present
# (§5) Using experimentally determined pI50-values for various ALS-inhibiting herbicides, enzyme activities at different inhibitor concentrations were calculated (see Theory) for each ALS enzyme. Total ALS activity at any given inhibitor concentration is the sum of the activity of (mutant) enzyme 1 and (mutant) enzyme 2. If the experimentally determined pI50-value was <4, pI50=3.0 was used for the calculations. If the calculated pI50-value was 3.0, the pI50 was redefined as <4.
# [8] = target: T6, mixture of S653N and W574L ALS enzymes (Arabidopsis thaliana, UniProt P17597); assay type: biochemical; settings: for pI50 S653N & W574L: calculated for a mixture of equal activities of the two enzymes, pI50=3.0 used where measured <4; for Resistance Factor S653N & W574L: relative to WT, calculated
# T6 construct: crude E. coli extract was used
# Experimental: as §3, §4, §5
# [9] = Brassica napus, topical, 432 h, HETO108-HETO121, field, 18 days after application, 0%=no phytotoxic effects, 100%=all plants killed, read-out: % phytotox
# [10] = Brassica napus, topical, 432 h, ABILITY, field, 18 days after application, 0%=no phytotoxic effects, 100%=all plants killed, read-out: % phytotox
# [11] = measured, crude extract of E. coli expressed enzyme
# [12] = Brassica napus, topical, 432 h, read-out: % phytotox
Compound,"IC50 [3, 11]",Resistance Factor P197S [3],"IC50 [4, 11]",Resistance Factor S653N [4],"IC50 [5, 11]",Resistance Factor W574L [5],IC50 [6],pI50 P197S & W574L [7],Resistance Factor P197S & W574L [7],pI50 S653N & W574L [8],Resistance Factor S653N & W574L [8],also measured
"COc1cc(OC)nc(NC(=O)NS(=O)(=O)N(C)S(C)(=O)=O)n1 [Amidosulfuron, amidosulfuron]",> 100000 nM,>501,7.94 nM,0,> 100000 nM,>501,200 nM,<4,>501,5.6,13,"pest or weed control at 30 g/ha [1, 9]: 3%; pest or weed control at 30 g/ha [2, 10]: 98%"
"COc1cc(OC)nc(Oc2cccc(Oc3nc(OC)cc(OC)n3)c2C(=O)O)n1 [Bispyribac-sodium, bispyribac-sodium]",79.4 nM,4,251 nM,13,7940 nM,398,20 nM,6.1,40,5.8,79,"pest or weed control at 50 g/ha [1, 9]: 75%; pest or weed control at 50 g/ha [2, 10]: 100%"
"CCOc1ccccc1OS(=O)(=O)NC(=O)Nc1nc(OC)cc(OC)n1 [Ethoxysulfuron, ethoxysulfuron]",,,,,,,,,,,,"pest or weed control at 180 g/ha ([1]; Brassica napus, topical, 432 h, HETO108-HETO121, AI dose rate 180 gai/ha, field, 18 days after application, 0%=no phytotoxic effects, 100%=all plants killed, read-out: % phytotox): 70%; pest or weed control at 180 g/ha ([2]; Brassica napus, topical, 432 h, ABILITY, AI dose rate 180 gai/ha, field, 18 days after application, 0%=no phytotoxic effects, 100%=all plants killed, read-out: % phytotox): 100%"
"COc1cc(OC)nc(NC(=O)NS(=O)(=O)c2ncccc2C(F)(F)F)n1 [Flazasulfuron, flazasulfuron]",100 nM,126,0.316 nM,0,3160 nM,3981,0.794 nM,6.2,794,7.5,40,"pest or weed control at 50 g/ha [1, 9]: 80%; pest or weed control at 50 g/ha [2, 10]: 100%"
"COc1ncc(F)c2nc(S(=O)(=O)Nc3c(F)cccc3F)nn12 [Florasulam, florasulam]",,25,,8,,1585,,5.5,200,5.7,126,"% phytotox ([1]; HETO108-HETO121, AI dose rate 10 gai/ha, field, 18 days after application, 0%=no phytotoxic effects, 100%=all plants killed): 70%; % phytotox ([2]; ABILITY, AI dose rate 10 gai/ha, field, 18 days after application, 0%=no phytotoxic effects, 100%=all plants killed): 100%; pI50 P197S [3, 11]: 6.4; pI50 S653N [4, 11]: 6.9; pI50 W574L [5, 11]: 4.6; pI50 WT [6]: 7.8"
"COC(=O)c1ccc(C(F)(F)F)nc1S(=O)(=O)NC(=O)Nc1nc(OC)cc(OC)n1 [Flupyrsulfuron-methyl, flupyrsulfuron-methyl-sodium]",,,,,,,,,,,,"pest or weed control at 10 g/ha [1, 12]: 35%; pest or weed control at 10 g/ha [2, 12]: 100%"
"COCc1cnc(C2=NC(C)(C(C)C)C(=O)N2)c(C(=O)O)c1 (stereo not drawn) [Imazamox, imazamox]",5010 nM,1,> 100000 nM,>25,> 100000 nM,>25,3980 nM,4.1,20,<4,>25,"pest or weed control at 40 g/ha ([1]; Brassica napus, topical, 432 h, HETO108-HETO121, AI dose rate 40 gai/ha, field, 18 days after application, 0%=no phytotoxic effects, 100%=all plants killed, read-out: % phytotox): 19%; pest or weed control at 40 g/ha ([2]; Brassica napus, topical, 432 h, ABILITY, AI dose rate 40 gai/ha, field, 18 days after application, 0%=no phytotoxic effects, 100%=all plants killed, read-out: % phytotox): 99%"
"COC(=O)c1ccc(CNS(C)(=O)=O)cc1S(=O)(=O)NC(=O)Nc1nc(OC)cc(OC)n1 [Mesosulfaron-methyl, mesosulfuron-methyl]",,79,,16,,31623,,,794,,200,"% phytotox ([1]; HETO108-HETO121, AI dose rate 15 gai/ha, field, 18 days after application, 0%=no phytotoxic effects, 100%=all plants killed): 30%; % phytotox ([2]; ABILITY, AI dose rate 15 gai/ha, field, 18 days after application, 0%=no phytotoxic effects, 100%=all plants killed): 99%"
"COc1cc(OC)n2nc(S(=O)(=O)Nc3c(Cl)ccc(C)c3Cl)nc2n1 [Metosulam, metosulam]",1580 nM,631,6.31 nM,3,20000 nM,7943,2.51 nM,5.2,2512,6.4,158,"pest or weed control at 30 g/ha [1, 9]: 35%; pest or weed control at 30 g/ha [2, 10]: 100%"
"COC(=O)c1ccccc1S(=O)(=O)NC(=O)Nc1nc(C)nc(OC)n1 [Metsulfuron-methyl, metsulfuron-methyl]",,50,,6,,1000,,,251,,79,"% phytotox ([1]; HETO108-HETO121, AI dose rate 8 gai/ha, field, 18 days after application, 0%=no phytotoxic effects, 100%=all plants killed): 73%; % phytotox ([2]; ABILITY, AI dose rate 8 gai/ha, field, 18 days after application, 0%=no phytotoxic effects, 100%=all plants killed): 100%"
"CCCOc1nn(C(=O)[N-]S(=O)(=O)c2ccccc2C(=O)OC)c(=O)n1C.[Na+] [Propoxycarbazone, propoxycarbazone-sodium]",,158,,25,,316,,,200,,100,"% phytotox ([1]; HETO108-HETO121, AI dose rate 70 gai/ha, field, 18 days after application, 0%=no phytotoxic effects, 100%=all plants killed): 65%; % phytotox ([2]; ABILITY, AI dose rate 70 gai/ha, field, 18 days after application, 0%=no phytotoxic effects, 100%=all plants killed): 100%"
"COC(=O)c1ccccc1S(=O)(=O)NC(=O)N(C)c1nc(C)nc(OC)n1 [Tribenuron-methyl, tribenuron-methyl]",,,,,,,,,,,,"pest or weed control at 20 g/ha ([1]; Brassica napus, topical, 432 h, HETO108-HETO121, AI dose rate 20 gai/ha, field, 18 days after application, 0%=no phytotoxic effects, 100%=all plants killed, read-out: % phytotox): 5%; pest or weed control at 20 g/ha ([2]; Brassica napus, topical, 432 h, ABILITY, AI dose rate 20 gai/ha, field, 18 days after application, 0%=no phytotoxic effects, 100%=all plants killed, read-out: % phytotox): 99%"
iodosulfuron-methyl-sodium [Iodosulfuron-methy-sodium],,158,,10,,631,,,,,79,"% phytotox ([1]; HETO108-HETO121, AI dose rate 7 gai/ha, field, 18 days after application, 0%=no phytotoxic effects, 100%=all plants killed): 43%; % phytotox ([2]; ABILITY, AI dose rate 7 gai/ha, field, 18 days after application, 0%=no phytotoxic effects, 100%=all plants killed): 100%"
